# Measurements taken from the supplement of paper PMC10883282.
# ± gives the standard deviation of the averaged measurements.
# Tested on: SW684
# Test: relative viability vs DMSO control (72 h) (fraction); higher = more viable cells
# In short: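 A 5 µM positive control and 0.1% DMSO vehicle ran alongside sarcoma cell lines seeded in 384-well plates to reach 80–90% confluence. Serially diluted compound, 2.5 µl from source plates of 10 mM to 0.0002 mM, was added after 24 h, and the plates were held 72 h at 37 °C, 5% CO2. Relative viability was worked out from ATPLite readings as percent growth averaged over up to triplicate wells. The values were rescaled so that 1 is full and 0 is none.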
SMILES,relative viability (0.00017 µM),relative viability (0.00051 µM),relative viability (0.00152 µM),relative viability (0.00457 µM),relative viability (0.01372 µM),relative viability (0.04115 µM),relative viability (0.1235 µM),relative viability (0.3704 µM),relative viability (1.111 µM),relative viability (3.333 µM),relative viability (10 µM)
CO[C@H]1C[C@@H]2CC[C@@H](C)[C@@](O)(O2)C(=O)C(=O)N2CCCC[C@H]2C(=O)O[C@H]([C@H](C)C[C@@H]2CC[C@@H](OP(C)(C)=O)[C@H](OC)C2)CC(=O)[C@H](C)/C=C(\C)[C@@H](O)[C@@H](OC)C(=O)[C@H](C)C[C@H](C)/C=C/C=C/C=C/1C [Ridaforolimus],1.14 ± 0.081,1.11 ± 0.065,1.07 ± 0.021,0.971 ± 0.07,0.896 ± 0.043,0.862 ± 0.026,0.839 ± 0.033,0.846 ± 0.049,0.833 ± 0.025,0.791 ± 0.045,0.749 ± 0.068
CCc1cc2c(cc1N1CCC(N3CCOCC3)CC1)C(C)(C)c1[nH]c3cc(C#N)ccc3c1C2=O [Alectinib],1.15 ± 0.037,1.13 ± 0.066,1.11 ± 0.035,1.129 ± 0.011,1.19 ± 0.058,1.2 ± 0.1,1.21 ± 0.055,1.22 ± 0.073,1.2 ± 0.055,1.16 ± 0.022,1.18 ± 0.04
C[C@@H](c1ccc2nccn2c1)n1nnc2ncc(-c3cnn(C)c3)nc21 [Volitinib],1.17 ± 0.067,1.17 ± 0.028,1.17 ± 0.022,1.14 ± 0.083,1.18 ± 0.048,1.17 ± 0.034,1.16 ± 0.064,1.15 ± 0.032,1.13 ± 0.019,1.13 ± 0.018,0.968 ± 0.092
CC1(C)CNc2cc(NC(=O)c3cccnc3NCc3ccncc3)ccc21 [Motesanib],1.04 ± 0.033,0.999 ± 0.073,0.999 ± 0.065,1.01 ± 0.084,0.978 ± 0.016,0.9719 ± 0.0041,0.99 ± 0.079,0.94 ± 0.016,0.98 ± 0.064,1.02 ± 0.043,0.859 ± 0.039
CN1CCN(c2ccc3nc(-c4c(N)c5c(F)cccc5[nH]c4=O)[nH]c3c2)CC1 [Dovitinib],1.12 ± 0.039,1.17 ± 0.013,1.17 ± 0.033,1.15 ± 0.037,1.18 ± 0.028,1.15 ± 0.038,1.11 ± 0.037,1.138 ± 0.01,0.977 ± 0.034,0.656 ± 0.019,0.294 ± 0.038
CNC(=O)c1cc(Oc2ccc(NC(=O)Nc3ccc(Cl)c(C(F)(F)F)c3)c(F)c2)ccn1 [Regorafenib],1.194 ± 0.0028,1.23 ± 0.02,1.22 ± 0.013,1.24 ± 0.049,1.21 ± 0.036,1.15 ± 0.031,1.21 ± 0.049,1.24 ± 0.036,1.32 ± 0.054,1.3 ± 0.03,0.772 ± 0.016
Cc1nc(NC(=O)N2CCC[C@H]2C(N)=O)sc1-c1ccnc(C(C)(C)C(F)(F)F)c1 [Alpelisib],1.09 ± 0.054,1.12 ± 0.043,1.12 ± 0.059,1.15 ± 0.065,1.09 ± 0.089,1.05 ± 0.026,1.07 ± 0.061,0.968 ± 0.025,0.876 ± 0.0097,0.643 ± 0.025,0.446 ± 0.036
CCN1CCN(Cc2ccc(Nc3ncc(F)c(-c4cc(F)c5nc(C)n(C(C)C)c5c4)n3)nc2)CC1 [Abemaciclib],1.13 ± 0.036,1.16 ± 0.06,1.13 ± 0.048,1.12 ± 0.035,1.1 ± 0.051,1.11 ± 0.051,1.04 ± 0.037,0.894 ± 0.059,0.781 ± 0.028,0.832 ± 0.027,0.825 ± 0.035
CC[C@H](Nc1ncnc2[nH]cnc12)c1nc2cccc(F)c2c(=O)n1-c1ccccc1 [Idelalisib],1.18 ± 0.064,1.22 ± 0.025,1.18 ± 0.07,1.23 ± 0.045,1.02 ± 0.08,0.946 ± 0.023,0.875 ± 0.049,0.772 ± 0.049,0.658 ± 0.053,0.6 ± 0.014,0.513 ± 0.017
C=CC(=O)N1CCC[C@@H](n2nc(-c3ccc(Oc4ccccc4)cc3)c3c(N)ncnc32)C1 [Ibrutinib],1.18 ± 0.037,1.22 ± 0.063,1.2 ± 0.016,1.22 ± 0.026,1.17 ± 0.054,1.24 ± 0.054,1.15 ± 0.12,1.24 ± 0.061,1.26 ± 0.078,1.3 ± 0.071,1.06 ± 0.031
